According to ChEMBL document CHEMBL1201862, “PubChem BioAssay data set” (2004):
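Method: 48-hour compound exposure of cells in 96-well plates, five concentrations, linear interpolation of endpoints. GI50 = concentration required for 50% inhibition of growth.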 Activity calls are given as the source filed them. No stated cut-off is given here; in the data, active = GI50 up to about 1.1 µM and inactive = higher.

Assays:
Assay in all cases: NCI-60 cell line screen, 48 h
786-0 = test system: 786-0
A549 = test system: A549
ACHN = test system: ACHN
CAKI-1 = test system: CAKI-1
CCRF-CEM = test system: CCRF-CEM
COLO 205 = test system: COLO 205
DLD-1 = test system: DLD-1
DMS-114 = test system: DMS-114
EKVX = test system: EKVX
HCT-116 = test system: HCT-116
HCT-15 = test system: HCT-15
HL-60 = test system: HL-60
HOP-18 = test system: HOP-18
HOP-62 = test system: HOP-62
HOP-92 = test system: HOP-92
HT-29 = test system: HT-29
IGROV-1 = test system: IGROV-1
K562 = test system: K562
KM-20L2 = test system: KM-20L2
KM12 = test system: KM12
LXFL 529 = test system: LXFL 529
M14 = test system: M14
M19-MEL = test system: M19-MEL
MOLT-4 = test system: MOLT-4
Malme-3M = test system: Malme-3M
NCI-H226 = test system: NCI-H226
NCI-H23 = test system: NCI-H23
NCI-H460 = test system: NCI-H460
NCI-H522 = test system: NCI-H522
OVCAR-3 = test system: OVCAR-3
OVCAR-4 = test system: OVCAR-4
OVCAR-8 = test system: OVCAR-8
RPMI-8226 = test system: RPMI-8226
RXF 393 = test system: RXF 393
RXF 631 = test system: RXF 631
SF-268 = test system: SF-268
SF-295 = test system: SF-295
SF-539 = test system: SF-539
SK-MEL-28 = test system: SK-MEL-28
SK-MEL-5 = test system: SK-MEL-5
SK-OV-3 = test system: SK-OV-3
SN12C = test system: SN12C
SNB-19 = test system: SNB-19
SNB-75 = test system: SNB-75
SR = test system: SR
SW-620 = test system: SW-620
TK-10 = test system: TK-10
U-251 = test system: U-251
UACC-257 = test system: UACC-257
UACC-62 = test system: UACC-62
UO-31 = test system: UO-31
XF498 = test system: XF498
A498 = test system: A498
DMS-273 = test system: DMS-273
HCC 2998 = test system: HCC 2998
OVCAR-5 = test system: OVCAR-5
SK-MEL-2 = test system: SK-MEL-2
SNB-78 = test system: SNB-78

Compound: COC[C@@H](/N=C/N1CCc2cc(OC)c(OC)cc2C1)C(C)(C)C
- GI50 (786-0): > 100 µM (inactive)
- GI50 (A549): > 100 µM (inactive)
- GI50 (ACHN): > 100 µM (inactive)
- GI50 (CAKI-1): > 100 µM (inactive)
- GI50 (CCRF-CEM): > 100 µM (inactive)
- GI50 (COLO 205): > 100 µM (inactive)
- GI50 (DLD-1): > 100 µM (inactive)
- GI50 (DMS-114): > 100 µM (inactive)
- GI50 (EKVX): > 100 µM (inactive)
- GI50 (HCT-116): > 100 µM (inactive)
- GI50 (HCT-15): > 100 µM
- GI50 (HL-60): > 100 µM (inactive)
- GI50 (HOP-18): > 100 µM (inactive)
- GI50 (HOP-62): > 100 µM (inactive)
- GI50 (HOP-92): > 100 µM (inactive)
- GI50 (HT-29): > 100 µM (inactive)
- GI50 (IGROV-1): > 100 µM (inactive)
- GI50 (K562): > 100 µM (inactive)
- GI50 (KM-20L2): > 100 µM (inactive)
- GI50 (KM12): > 100 µM (inactive)
- GI50 (LXFL 529): > 100 µM (inactive)
- GI50 (M14): > 100 µM (inactive)
- GI50 (M19-MEL): > 100 µM (inactive)
- GI50 (MOLT-4): > 100 µM (inactive)
- GI50 (Malme-3M): > 100 µM (inactive)
- GI50 (NCI-H226): > 100 µM (inactive)
- GI50 (NCI-H23): > 100 µM (inactive)
- GI50 (NCI-H460): > 100 µM (inactive)
- GI50 (NCI-H522): > 100 µM (inactive)
- GI50 (OVCAR-3): > 100 µM (inactive)
- GI50 (OVCAR-4): > 100 µM (inactive)
- GI50 (OVCAR-8): > 100 µM (inactive)
- GI50 (RPMI-8226): > 100 µM (inactive)
- GI50 (RXF 393): > 100 µM (inactive)
- GI50 (RXF 631): > 100 µM (inactive)
- GI50 (SF-268): > 100 µM (inactive)
- GI50 (SF-295): > 100 µM (inactive)
- GI50 (SF-539): > 100 µM (inactive)
- GI50 (SK-MEL-28): > 100 µM (inactive)
- GI50 (SK-MEL-5): > 100 µM (inactive)
- GI50 (SK-OV-3): > 100 µM (inactive)
- GI50 (SN12C): > 100 µM (inactive)
- GI50 (SNB-19): > 100 µM (inactive)
- GI50 (SNB-75): > 100 µM (inactive)
- GI50 (SR): > 100 µM (inactive)
- GI50 (SW-620): > 100 µM (inactive)
- GI50 (TK-10): > 100 µM (inactive)
- GI50 (U-251): > 100 µM (inactive)
- GI50 (UACC-257): > 100 µM (inactive)
- GI50 (UACC-62): > 100 µM (inactive)
- GI50 (UO-31): > 100 µM (inactive)
- GI50 (XF498): > 100 µM (inactive)

Compound: Cc1ccccc1C(C#N)/C(=N/NC(=O)C(=O)NN)C(=O)Nc1cccc(C(F)(F)F)c1 (stereo not drawn)
- GI50 (786-0): > 100 µM (inactive)
- GI50 (A498): > 100 µM (inactive)
- GI50 (A549): > 100 µM (inactive)
- GI50 (ACHN): > 100 µM (inactive)
- GI50 (CAKI-1): > 100 µM (inactive)
- GI50 (CCRF-CEM): > 100 µM (inactive)
- GI50 (COLO 205): > 100 µM (inactive)
- GI50 (DLD-1): > 100 µM (inactive)
- GI50 (DMS-114): > 100 µM (inactive)
- GI50 (DMS-273): > 100 µM (inactive)
- GI50 (EKVX): > 100 µM (inactive)
- GI50 (HCC 2998): > 100 µM (inactive)
- GI50 (HCT-116): > 100 µM (inactive)
- GI50 (HCT-15): > 100 µM
- GI50 (HL-60): > 100 µM (inactive)
- GI50 (HOP-18): > 100 µM (inactive)
- GI50 (HOP-62): > 100 µM (inactive)
- GI50 (HOP-92): > 100 µM (inactive)
- GI50 (HT-29): > 100 µM (inactive)
- GI50 (IGROV-1): > 100 µM (inactive)
- GI50 (K562): > 100 µM (inactive)
- GI50 (KM-20L2): > 100 µM (inactive)
- GI50 (KM12): > 100 µM (inactive)
- GI50 (LXFL 529): > 100 µM (inactive)
- GI50 (M14): > 100 µM (inactive)
- GI50 (M19-MEL): > 100 µM (inactive)
- GI50 (MOLT-4): > 100 µM (inactive)
- GI50 (Malme-3M): > 100 µM (inactive)
- GI50 (NCI-H226): > 100 µM (inactive)
- GI50 (NCI-H23): > 100 µM (inactive)
- GI50 (NCI-H460): > 100 µM (inactive)
- GI50 (NCI-H522): > 100 µM (inactive)
- GI50 (OVCAR-3): > 100 µM (inactive)
- GI50 (OVCAR-4): > 100 µM (inactive)
- GI50 (OVCAR-5): > 100 µM (inactive)
- GI50 (OVCAR-8): > 100 µM (inactive)
- GI50 (RPMI-8226): > 100 µM (inactive)
- GI50 (RXF 631): > 100 µM (inactive)
- GI50 (SF-268): > 100 µM (inactive)
- GI50 (SF-295): > 100 µM (inactive)
- GI50 (SF-539): > 100 µM (inactive)
- GI50 (SK-MEL-28): > 100 µM (inactive)
- GI50 (SK-MEL-2): > 100 µM (inactive)
- GI50 (SK-MEL-5): > 100 µM (inactive)
- GI50 (SN12C): > 100 µM (inactive)
- GI50 (SNB-19): > 100 µM (inactive)
- GI50 (SNB-75): 49.8 µM (inactive)
- GI50 (SNB-78): > 100 µM (inactive)
- GI50 (SR): > 100 µM (inactive)
- GI50 (SW-620): > 100 µM (inactive)
- GI50 (TK-10): > 100 µM (inactive)
- GI50 (U-251): > 100 µM (inactive)
- GI50 (UACC-257): > 100 µM (inactive)
- GI50 (UACC-62): > 100 µM (inactive)
- GI50 (UO-31): > 100 µM (inactive)

Compound: CSc1ccc2c(cc1=O)C(NC(=O)c1ccc(C#N)cc1)CCc1cc(O)c(O)c(O)c1-2 (stereo not drawn)
- GI50 (786-0): 37.2 µM (inactive)
- GI50 (A498): 44.5 µM (inactive)
- GI50 (A549): 44.4 µM (inactive)
- GI50 (ACHN): > 100 µM (inactive)
- GI50 (CCRF-CEM): 9.66 µM (inactive)
- GI50 (COLO 205): 19.6 µM (inactive)
- GI50 (DLD-1): 23.1 µM (inactive)
- GI50 (DMS-114): 14.8 µM (inactive)
- GI50 (DMS-273): 34.9 µM (inactive)
- GI50 (EKVX): 22.4 µM (inactive)
- GI50 (HCC 2998): 21.8 µM (inactive)
- GI50 (HCT-116): 18.4 µM (inactive)
- GI50 (HCT-15): 19 µM
- GI50 (HL-60): 20.1 µM (inactive)
- GI50 (HOP-62): > 100 µM (inactive)
- GI50 (HT-29): 29 µM (inactive)
- GI50 (K562): 7.26 µM (inactive)
- GI50 (KM-20L2): 24.7 µM (inactive)
- GI50 (KM12): 33.7 µM (inactive)
- GI50 (LXFL 529): 19.8 µM (inactive)
- GI50 (M14): 30 µM (inactive)
- GI50 (M19-MEL): 11.9 µM (inactive)
- GI50 (MOLT-4): 22.5 µM (inactive)
- GI50 (Malme-3M): > 100 µM (inactive)
- GI50 (NCI-H226): 26.2 µM (inactive)
- GI50 (NCI-H23): 27.6 µM (inactive)
- GI50 (NCI-H460): 27.6 µM (inactive)
- GI50 (NCI-H522): 15.7 µM (inactive)
- GI50 (OVCAR-3): 36.6 µM (inactive)
- GI50 (OVCAR-4): 12.1 µM (inactive)
- GI50 (OVCAR-5): > 100 µM (inactive)
- GI50 (OVCAR-8): 30.5 µM (inactive)
- GI50 (RXF 631): 49.8 µM (inactive)
- GI50 (SF-268): 43.4 µM (inactive)
- GI50 (SF-295): 27.2 µM (inactive)
- GI50 (SF-539): 15.5 µM (inactive)
- GI50 (SK-MEL-28): > 100 µM (inactive)
- GI50 (SK-MEL-5): 15.4 µM (inactive)
- GI50 (SK-OV-3): 27.4 µM (inactive)
- GI50 (SN12C): 19.8 µM (inactive)
- GI50 (SNB-19): 41.9 µM (inactive)
- GI50 (SNB-75): 4.2 µM (inactive)
- GI50 (SNB-78): 5.58 µM (inactive)
- GI50 (SR): 11.7 µM (inactive)
- GI50 (SW-620): 19.5 µM (inactive)
- GI50 (TK-10): 63 µM (inactive)
- GI50 (U-251): 19.5 µM (inactive)
- GI50 (UACC-257): 12.2 µM (inactive)
- GI50 (UACC-62): 19.3 µM (inactive)
- GI50 (UO-31): 75.9 µM (inactive)
- GI50 (XF498): 26.8 µM (inactive)
